The record followed here is PubChem BioAssay AID330 (DTP/NCI, 2004).

Molecules are shown by their SMILES. Values joined by “and” are separate entries in the source; they are usually repeats but may differ in a detail not shown here. Equal entries are not always repeated. Inconclusive results and toxic doses are left out.

For this experiment, the system named is P388 leukemia ip, CD2F1 mice, survival T/C. Description: NCI In Vivo Anticancer Drug Screen. Data for tumor model P388 Leukemia (intraperitoneal) in CD2F1 (CDF1) mice. As to conditions: endpoint: median survival time, higher = longer survival. The essentials:
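Mice carrying the transplanted tumor received test compound or vehicle. Survival was recorded in each group, and the value is the treated-group measurement divided by that of the vehicle-treated control group.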

The mark [1] stands for this setting: dose: 50.0 mg/kg/injection, schedule: Q01DX005 (ip), vehicle: saline with Tween-80.
The mark [2] stands for this setting: dose: 100.0 mg/kg/injection, schedule: Q01DX005 (ip), vehicle: saline with Tween-80.
The mark [3] stands for this setting: dose: 200.0 mg/kg/injection, schedule: Q01DX005 (ip), vehicle: saline with Tween-80.
Where [4] appears, read: dose: 50.0 mg/kg/injection, schedule: Q01DX009 (ip), vehicle: Klucel (hydroxypropylcellulose) (HPC).
Setting [5] is: dose: 100.0 mg/kg/injection, schedule: Q01DX009 (ip), vehicle: Klucel (hydroxypropylcellulose) (HPC).
Setting [6] is: dose: 50.0 mg/kg/injection, schedule: Q01DX005 (ip), vehicle: saline.
Setting [7] is: dose: 100.0 mg/kg/injection, schedule: Q01DX005 (ip), vehicle: saline.
The mark [8] stands for this setting: dose: 200.0 mg/kg/injection, schedule: Q01DX005 (ip), vehicle: saline.
Where [9] appears, read: dose: 50.0 mg/kg/injection, schedule: Q01DX009 (ip), vehicle: saline with Tween-80.
Where [10] appears, read: dose: 100.0 mg/kg/injection, schedule: Q01DX009 (ip), vehicle: saline with Tween-80.

Take `C(=N\c1oc(-c2ccccc2)c(-c2ccccc2)c1-c1ccccc1)/c1ccccc1`: the T/C is 88 % of control under setting [1], 88 % of control under setting [2] and 95 % of control under setting [3].

For `CN(Cc1cnc2nc(N)nc(N)c2c1)c1ccc(C(=O)NC(CCC(=O)O)C(=O)O)cc1` (stereo not given), the T/C runs as follows: (dose: 0.25 mg/kg/injection, schedule: Q01DX005 (ip), vehicle: other) 123 % of control; (dose: 1.0 mg/kg/injection, schedule: Q01DX005 (ip), vehicle: other) 154 % of control; (dose: 2.0 mg/kg/injection, schedule: Q01DX005 (ip), vehicle: other) 150 % of control and 170 % of control; (dose: 4.0 mg/kg/injection, schedule: Q01DX005 (ip), vehicle: other) 166 % of control and 186 % of control and 197 % of control; (dose: 6.0 mg/kg/injection, schedule: Q01DX005 (ip), vehicle: other) 197 % of control.

As to `C(=C\c1ccc(-c2nc3ccccc3o2)cc1)/c1ccc(-c2nc3ccccc3o2)cc1`, the T/C was 100 % of control under setting [4]; 101 % of control under setting [5]; 102 % of control (dose: 200.0 mg/kg/injection, schedule: Q01DX009 (ip), vehicle: Klucel (hydroxypropylcellulose) (HPC)).

On to `COc1cccc2c1C(=O)c1c(O)c3c(c(O)c1C2=O)CC(O)(C(=O)CBr)CC3OC(C)=O` (stereo not given), for which the T/C is, setting by setting: (dose: 1.56 mg/kg/injection, schedule: Q01DX009 (ip), vehicle: other) 109 % of control; (dose: 3.13 mg/kg/injection, schedule: Q01DX009 (ip), vehicle: other) 103 % of control; (dose: 6.25 mg/kg/injection, schedule: Q01DX009 (ip), vehicle: other) 105 % of control; (dose: 12.5 mg/kg/injection, schedule: Q01DX009 (ip), vehicle: other) 113 % of control; (dose: 25.0 mg/kg/injection, schedule: Q01DX009 (ip), vehicle: other) 109 % of control.

In the case of `CS(=O)(=O)OCCN(CCOS(C)(=O)=O)c1ccc(N=Nc2ccccc2C(=O)O)cc1`, the T/C was 168 % of control (dose: 0.78 mg/kg/injection, schedule: Q01DX009 (ip), vehicle: Klucel (hydroxypropylcellulose) (HPC)); 187 % of control and 206 % of control (dose: 1.56 mg/kg/injection, schedule: Q01DX009 (ip), vehicle: Klucel (hydroxypropylcellulose) (HPC)); 233 % of control (dose: 3.12 mg/kg/injection, schedule: Q01DX009 (ip), vehicle: Klucel (hydroxypropylcellulose) (HPC)); 242 % of control (dose: 3.13 mg/kg/injection, schedule: Q01DX009 (ip), vehicle: Klucel (hydroxypropylcellulose) (HPC)); 107 % of control and 213 % of control (dose: 6.25 mg/kg/injection, schedule: Q01DX009 (ip), vehicle: Klucel (hydroxypropylcellulose) (HPC)).

For `O=[N+]([O-])c1ccc(/C=C/C=C\c2cccc(S(=O)(=O)F)c2)c(Cl)c1`, the T/C (dose: 100.0 mg/kg/injection, schedule: Q04DX003 (ip), vehicle: Klucel (hydroxypropylcellulose) (HPC)) is 90 % of control; the T/C (dose: 200.0 mg/kg/injection, schedule: Q04DX003 (ip), vehicle: Klucel (hydroxypropylcellulose) (HPC)) is 90 % of control; the T/C (dose: 400.0 mg/kg/injection, schedule: Q04DX003 (ip), vehicle: Klucel (hydroxypropylcellulose) (HPC)) is 90 % of control.

As for `C/C=C(\C)C(=O)OC1C(O)C(C)(C)C2C3C(=O)C=C(C)C2C3(C)C1OC(=O)/C(C)=C/C` (stereo not given), the T/C is 103 % of control (dose: 12.5 mg/kg/injection, schedule: Q01DX009 (ip), vehicle: Klucel (hydroxypropylcellulose) (HPC)); 100 % of control (dose: 25.0 mg/kg/injection, schedule: Q01DX009 (ip), vehicle: Klucel (hydroxypropylcellulose) (HPC)); 103 % of control under setting [4]; 103 % of control under setting [5].

With `O=C1C=C2OCOC2=C/C1=C/C=C/c1ccccc1`, the T/C reads like this: (dose: 2.5 mg/kg/injection, schedule: Q01DX009 (ip), vehicle: saline with Tween-80) 102 % of control; (dose: 5.0 mg/kg/injection, schedule: Q01DX009 (ip), vehicle: saline with Tween-80) 101 % of control; (dose: 10.0 mg/kg/injection, schedule: Q01DX009 (ip), vehicle: saline with Tween-80) 103 % of control.

For `CC(NNC(=S)N1CCN(c2ccccn2)CC1)c1cccc[n+]1[O-]` (stereo not given), the T/C is 103 % of control under setting [1], 100 % of control under setting [2] and 91 % of control under setting [3].

As for `Cc1ccc([NH-])c([NH-])c1.[Cl][Pt+2][Cl]`, the T/C (dose: 1.56 mg/kg/injection, schedule: Q04DX002 (ip), vehicle: saline with Tween-80) was 105 % of control and 108 % of control; the T/C (dose: 3.12 mg/kg/injection, schedule: Q04DX002 (ip), vehicle: saline with Tween-80) was 110 % of control; the T/C (dose: 25.0 mg/kg/injection, schedule: Q04DX002 (ip), vehicle: saline with Tween-80) was 150 % of control; the T/C (dose: 50.0 mg/kg/injection, schedule: Q04DX002 (ip), vehicle: saline with Tween-80) is 159 % of control.

Consider `CN(C)CCC(=O)C1CC1`, for which the T/C (dose: 12.5 mg/kg/injection, schedule: Q01DX005 (ip), vehicle: suspension in saline) is 94 % of control; the T/C (dose: 25.0 mg/kg/injection, schedule: Q01DX005 (ip), vehicle: suspension in saline) is 97 % of control; the T/C under setting [1] is 92 % of control; the T/C (dose: 50.0 mg/kg/injection, schedule: Q01DX005 (ip), vehicle: suspension in saline) is 100 % of control.

Take `CCCCN1CCNC1=S`: the T/C is, setting by setting: under setting [1], 100 % of control; under setting [2], 102 % of control; under setting [3], 102 % of control.

Regarding `O=C1CC2(CCc3ccccc32)C(=O)N1CN1CCN(CCO)CC1` (stereo not given), the T/C is, setting by setting: under setting [6], 106 % of control; under setting [7], 110 % of control; under setting [8], 115 % of control.

For `N#C/C1=C(\C#N)N=Cc2ccccc2NCCNc2ccccc2C=N1`, the T/C was 91 % of control (dose: 100.0 mg/kg/injection, schedule: Q04DX003 (ip), vehicle: saline); 98 % of control (dose: 200.0 mg/kg/injection, schedule: Q04DX003 (ip), vehicle: saline); 100 % of control (dose: 400.0 mg/kg/injection, schedule: Q04DX003 (ip), vehicle: saline).

As to `Cc1nc(Cl)c2[nH]c(Cl)nc2n1`, the T/C by setting is: (dose: 50.0 mg/kg/injection, schedule: Q01DX005 (ip), vehicle: Klucel (hydroxypropylcellulose) (HPC)) 102 % of control; (dose: 100.0 mg/kg/injection, schedule: Q01DX005 (ip), vehicle: Klucel (hydroxypropylcellulose) (HPC)) 102 % of control; (dose: 200.0 mg/kg/injection, schedule: Q01DX005 (ip), vehicle: Klucel (hydroxypropylcellulose) (HPC)) 100 % of control.

With `Oc1ccc2ccccc2c1/C=N\Sc1ccccc1`, the T/C was 98 % of control under setting [9] and 98 % of control under setting [10].

`COc1ccc(-c2cc(=O)c3ccc4c(O)cccc4c3o2)cc1`: the T/C by setting is: under setting [9], 94 % of control; under setting [10], 100 % of control; (dose: 200.0 mg/kg/injection, schedule: Q01DX009 (ip), vehicle: saline with Tween-80) 97 % of control; (dose: 400.0 mg/kg/injection, schedule: Q01DX009 (ip), vehicle: saline with Tween-80) 90 % of control.

As for `CC(C)C(=O)NCCCCCN1CCCCC1`, the T/C is 106 % of control under setting [6], 99 % of control under setting [7] and 99 % of control under setting [8].

On to `CCOC(=O)Nc1ccc2c(c1[N+](=O)[O-])c1cc([N+](=O)[O-])cc([N+](=O)[O-])c1n2CC`, for which the T/C runs as follows: under setting [1], 98 % of control; under setting [2], 90 % of control; under setting [3], 86 % of control.

As to `COC(=O)CC1C=CC(OC)[C@@]2(C)C(=O)c3ccccc3C(=O)[C@@H]12` (stereo not given in full), the T/C (dose: 60.0 mg/kg/injection, schedule: Q01DX005 (ip), vehicle: saline with Tween-80) was 93 % of control; the T/C (dose: 120.0 mg/kg/injection, schedule: Q01DX005 (ip), vehicle: saline with Tween-80) was 106 % of control; the T/C (dose: 240.0 mg/kg/injection, schedule: Q01DX005 (ip), vehicle: saline with Tween-80) is 101 % of control.

In the case of `COC(=O)c1ccc(C(=S)OC)cc1`, the T/C by setting is: (dose: 100.0 mg/kg/injection, schedule: Q04DX002 (ip), vehicle: saline with Tween-80) 108 % of control; (dose: 200.0 mg/kg/injection, schedule: Q04DX002 (ip), vehicle: saline with Tween-80) 100 % of control; (dose: 400.0 mg/kg/injection, schedule: Q04DX002 (ip), vehicle: saline with Tween-80) 101 % of control.

`COc1cc2c[n+](C)c3c(c2cc1OC)Cc1cc2c(cc1-3)OCO2`: the T/C is 151 % of control (dose: 25.0 mg/kg/injection, schedule: Q01DX005 (ip), vehicle: saline with Tween-80); 174 % of control under setting [6]; 168 % of control under setting [2].
